The values below come from ChEMBL document CHEMBL5120959, “Pyrrospirones K-Q, Decahydrofluorene-Class Alkaloids from the Marine-Derived Fungus Penicillium sp. SCSIO 41512” (J Nat Prod, 2022).

Structures are written as SMILES. ≈ marks a conversion by molar mass, not a printed value.

In assay [1] the test system is Bacillus amyloliquefaciens. Put plainly: Antibacterial activity against Bacillus amyloliquefaciens GDMCC 60233 assessed as reduction in microbial growth after 12 hrs by microbroth dilution method. Format: functional. In general terms: Dilution methods test growth across graded concentrations, often in twofold steps.
For another assay, the system named is Streptococcus agalactiae. Nature of the assay: Antibacterial activity against Streptococcus agalactiae ATCC 13813 assessed as reduction in microbial growth after 12 hrs by microbroth dilution method. The assay is classed as functional.
The test system of a further assay is Bacillus subtilis. Nature of the assay: Antibacterial activity against Bacillus subtilis BS01 assessed as reduction in microbial growth after 12 hrs by microbroth dilution method. The assay is classed as functional.
Assay [2] has as its system Staphylococcus aureus. Put plainly: Antibacterial activity against Staphylococcus aureus ATCC 6538 assessed as reduction in microbial growth after 12 hrs by microbroth dilution method. The assay is classed as functional.
The subject of assay [3] is Staphylococcus aureus. Nature of the assay: Antibacterial activity against methicillin-resistant Staphylococcus aureus assessed as reduction in microbial growth after 12 hrs by microbroth dilution method. The assay is classed as functional.
The target in assay [4] is Tyrosine-protein phosphatase non-receptor type 6 (Homo sapiens, UniProt P29350). Nature of the assay: Inhibition of human SHP1.
Another assay relates to NCI-H1975. Put plainly: Cytotoxicity against human NCI-H1975 cells assessed as reduction in cell viability after 24 hrs by CCK8 assay. The following applies: NCI-H1975, 24 h. Format: functional, cell-based. For orientation: Tetrazolium dyes change colour on reduction, which living cells bring about.
The target in assay [5] is Receptor-type tyrosine-protein phosphatase F (Homo sapiens, UniProt P10586). Put plainly: Inhibition of human LAR.
Assay [6] deals with T1, Tyrosine-protein phosphatase non-receptor type 2 (Homo sapiens, UniProt P17706).
T1 sequence (P17706 whole entry): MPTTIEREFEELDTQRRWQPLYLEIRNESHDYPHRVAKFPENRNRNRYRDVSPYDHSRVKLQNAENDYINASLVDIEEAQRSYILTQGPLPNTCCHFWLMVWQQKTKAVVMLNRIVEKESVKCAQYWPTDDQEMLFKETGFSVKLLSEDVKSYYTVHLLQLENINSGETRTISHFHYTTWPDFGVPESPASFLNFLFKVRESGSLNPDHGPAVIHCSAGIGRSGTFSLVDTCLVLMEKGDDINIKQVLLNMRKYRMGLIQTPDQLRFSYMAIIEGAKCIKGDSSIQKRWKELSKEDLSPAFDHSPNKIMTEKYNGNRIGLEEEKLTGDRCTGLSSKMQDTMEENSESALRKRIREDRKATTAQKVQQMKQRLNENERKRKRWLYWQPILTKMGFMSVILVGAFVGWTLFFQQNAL
Put plainly: Inhibition of human TCPTP.

The target of assay [7] is T2, Receptor-type tyrosine-protein phosphatase C (Homo sapiens, UniProt P08575).
T2 sequence (P08575 whole entry): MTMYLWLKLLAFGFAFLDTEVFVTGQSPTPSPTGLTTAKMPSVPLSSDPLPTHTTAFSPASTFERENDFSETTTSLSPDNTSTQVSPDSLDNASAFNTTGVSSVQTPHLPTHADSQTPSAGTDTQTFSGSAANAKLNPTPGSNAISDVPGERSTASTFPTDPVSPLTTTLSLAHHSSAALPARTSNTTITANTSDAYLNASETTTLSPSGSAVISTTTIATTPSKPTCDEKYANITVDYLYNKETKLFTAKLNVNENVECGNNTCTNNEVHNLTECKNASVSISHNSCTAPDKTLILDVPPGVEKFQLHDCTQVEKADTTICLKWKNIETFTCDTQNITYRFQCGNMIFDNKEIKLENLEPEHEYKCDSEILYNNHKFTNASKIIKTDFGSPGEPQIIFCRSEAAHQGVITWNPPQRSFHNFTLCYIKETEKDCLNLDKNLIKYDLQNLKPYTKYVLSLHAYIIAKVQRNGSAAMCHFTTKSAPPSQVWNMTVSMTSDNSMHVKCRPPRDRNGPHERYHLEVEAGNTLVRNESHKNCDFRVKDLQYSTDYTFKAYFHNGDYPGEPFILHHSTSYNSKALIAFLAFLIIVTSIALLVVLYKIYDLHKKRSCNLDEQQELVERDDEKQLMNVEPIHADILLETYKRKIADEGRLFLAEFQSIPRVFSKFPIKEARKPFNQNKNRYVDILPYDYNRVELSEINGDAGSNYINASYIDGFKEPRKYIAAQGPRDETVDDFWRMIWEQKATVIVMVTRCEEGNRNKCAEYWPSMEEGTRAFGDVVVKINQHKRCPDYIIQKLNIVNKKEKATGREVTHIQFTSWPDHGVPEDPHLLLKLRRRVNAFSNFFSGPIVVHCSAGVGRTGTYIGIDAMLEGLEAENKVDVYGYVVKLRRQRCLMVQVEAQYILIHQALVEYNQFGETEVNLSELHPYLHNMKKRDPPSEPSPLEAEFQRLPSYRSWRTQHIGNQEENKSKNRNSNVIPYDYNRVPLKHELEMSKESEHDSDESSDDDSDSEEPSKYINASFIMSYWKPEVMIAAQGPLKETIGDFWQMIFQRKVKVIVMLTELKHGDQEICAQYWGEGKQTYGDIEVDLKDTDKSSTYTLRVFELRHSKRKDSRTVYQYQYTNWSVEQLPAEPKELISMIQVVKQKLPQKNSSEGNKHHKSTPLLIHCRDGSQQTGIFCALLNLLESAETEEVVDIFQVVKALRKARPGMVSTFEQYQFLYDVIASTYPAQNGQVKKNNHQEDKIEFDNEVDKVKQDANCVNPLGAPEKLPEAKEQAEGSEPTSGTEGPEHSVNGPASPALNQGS
Put plainly: Inhibition of human CD45.

Another assay relates to Escherichia coli. Put plainly: microbe, parasite or virus in culture. The assay is classed as functional. To be noted: ATCC 25922, time 12 hrs.
In assay [8] the target is T3, Tyrosine-protein phosphatase non-receptor type 1 (Homo sapiens, UniProt P18031).
T3 sequence (P18031 whole entry): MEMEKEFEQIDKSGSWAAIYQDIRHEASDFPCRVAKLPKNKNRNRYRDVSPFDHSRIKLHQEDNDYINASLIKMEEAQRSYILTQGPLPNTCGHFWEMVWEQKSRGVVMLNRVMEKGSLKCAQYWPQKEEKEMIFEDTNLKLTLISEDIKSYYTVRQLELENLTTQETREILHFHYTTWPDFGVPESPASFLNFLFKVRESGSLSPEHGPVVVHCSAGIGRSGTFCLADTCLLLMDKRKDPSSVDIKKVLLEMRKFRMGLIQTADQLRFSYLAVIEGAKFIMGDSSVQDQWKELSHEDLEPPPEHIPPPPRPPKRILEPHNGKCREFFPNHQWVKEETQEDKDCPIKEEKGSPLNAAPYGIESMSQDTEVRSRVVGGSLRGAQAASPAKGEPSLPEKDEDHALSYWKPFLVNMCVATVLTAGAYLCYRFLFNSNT
Put plainly: Inhibition of human PTP1B.

Chain of Receptor-type tyrosine-protein phosphatase F (P10586 whole entry): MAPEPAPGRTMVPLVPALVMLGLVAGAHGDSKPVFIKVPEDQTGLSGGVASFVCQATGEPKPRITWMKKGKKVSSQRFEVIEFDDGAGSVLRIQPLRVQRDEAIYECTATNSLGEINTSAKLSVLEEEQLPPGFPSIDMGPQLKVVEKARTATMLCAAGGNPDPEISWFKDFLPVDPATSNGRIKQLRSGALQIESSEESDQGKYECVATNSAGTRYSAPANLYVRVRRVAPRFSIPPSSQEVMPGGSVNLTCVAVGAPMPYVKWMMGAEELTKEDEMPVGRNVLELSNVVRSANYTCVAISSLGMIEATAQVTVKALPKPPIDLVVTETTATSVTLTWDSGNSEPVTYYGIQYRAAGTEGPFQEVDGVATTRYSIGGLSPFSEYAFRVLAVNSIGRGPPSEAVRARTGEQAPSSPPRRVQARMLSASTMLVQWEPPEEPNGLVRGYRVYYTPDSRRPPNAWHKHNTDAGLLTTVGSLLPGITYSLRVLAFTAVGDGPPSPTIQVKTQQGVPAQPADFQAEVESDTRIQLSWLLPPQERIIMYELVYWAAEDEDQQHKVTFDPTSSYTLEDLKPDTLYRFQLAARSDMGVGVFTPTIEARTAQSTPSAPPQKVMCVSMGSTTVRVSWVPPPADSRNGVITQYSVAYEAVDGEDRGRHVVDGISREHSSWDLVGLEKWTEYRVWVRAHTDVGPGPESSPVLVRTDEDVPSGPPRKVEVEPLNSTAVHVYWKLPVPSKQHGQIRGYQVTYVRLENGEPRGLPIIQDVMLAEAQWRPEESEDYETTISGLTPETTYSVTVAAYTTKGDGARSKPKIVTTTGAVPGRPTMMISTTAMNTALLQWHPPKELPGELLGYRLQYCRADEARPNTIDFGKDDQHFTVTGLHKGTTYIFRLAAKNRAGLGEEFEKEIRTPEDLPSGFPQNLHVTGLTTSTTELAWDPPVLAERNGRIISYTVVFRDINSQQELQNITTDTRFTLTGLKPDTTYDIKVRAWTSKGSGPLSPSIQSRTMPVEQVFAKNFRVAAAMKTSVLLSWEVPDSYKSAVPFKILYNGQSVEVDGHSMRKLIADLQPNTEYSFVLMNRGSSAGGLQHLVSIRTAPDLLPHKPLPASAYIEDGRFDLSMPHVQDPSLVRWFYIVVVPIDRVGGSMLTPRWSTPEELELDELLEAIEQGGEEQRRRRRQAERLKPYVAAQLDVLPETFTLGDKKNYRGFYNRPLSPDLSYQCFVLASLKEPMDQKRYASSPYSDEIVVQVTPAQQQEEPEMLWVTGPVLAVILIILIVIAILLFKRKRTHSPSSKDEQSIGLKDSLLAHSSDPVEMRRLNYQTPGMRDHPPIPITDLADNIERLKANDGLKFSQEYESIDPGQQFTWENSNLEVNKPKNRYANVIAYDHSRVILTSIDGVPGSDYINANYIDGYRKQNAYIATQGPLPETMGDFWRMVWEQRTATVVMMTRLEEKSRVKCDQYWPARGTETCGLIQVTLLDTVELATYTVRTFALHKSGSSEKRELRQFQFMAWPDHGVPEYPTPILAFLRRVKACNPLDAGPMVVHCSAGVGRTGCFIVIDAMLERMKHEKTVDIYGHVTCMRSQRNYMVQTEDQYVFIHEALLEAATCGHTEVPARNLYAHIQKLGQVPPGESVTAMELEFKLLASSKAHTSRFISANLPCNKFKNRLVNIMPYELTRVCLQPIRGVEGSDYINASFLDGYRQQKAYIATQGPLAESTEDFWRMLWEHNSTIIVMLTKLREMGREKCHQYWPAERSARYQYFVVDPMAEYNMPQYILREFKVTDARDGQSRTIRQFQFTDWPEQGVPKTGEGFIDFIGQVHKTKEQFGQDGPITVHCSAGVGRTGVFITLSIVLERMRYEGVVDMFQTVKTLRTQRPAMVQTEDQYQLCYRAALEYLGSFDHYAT
Chain of Tyrosine-protein phosphatase non-receptor type 6 (P29350 whole entry): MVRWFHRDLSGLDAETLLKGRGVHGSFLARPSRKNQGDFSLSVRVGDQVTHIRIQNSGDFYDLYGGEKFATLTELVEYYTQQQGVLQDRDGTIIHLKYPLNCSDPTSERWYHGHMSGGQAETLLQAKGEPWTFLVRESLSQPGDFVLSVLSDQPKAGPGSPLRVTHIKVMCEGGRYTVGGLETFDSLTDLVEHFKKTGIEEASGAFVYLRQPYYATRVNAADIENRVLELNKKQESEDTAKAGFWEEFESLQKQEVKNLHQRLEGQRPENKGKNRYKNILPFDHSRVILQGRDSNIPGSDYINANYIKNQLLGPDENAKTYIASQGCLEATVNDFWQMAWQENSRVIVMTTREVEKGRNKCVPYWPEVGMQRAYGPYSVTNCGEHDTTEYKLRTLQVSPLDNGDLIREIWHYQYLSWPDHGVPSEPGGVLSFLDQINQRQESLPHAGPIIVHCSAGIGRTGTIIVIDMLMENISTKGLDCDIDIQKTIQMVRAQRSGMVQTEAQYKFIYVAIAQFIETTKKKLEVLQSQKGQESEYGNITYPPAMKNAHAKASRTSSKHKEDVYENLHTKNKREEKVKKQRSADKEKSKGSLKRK
Description for Escherichia coli: Antibacterial activity against Escherichia coli ATCC 25922 assessed as reduction in microbial growth after 12 hrs by microbroth dilution method

As for `CN[C@@H]1[C@@H](O)[C@@H](O[C@@H]2[C@@H](O)[C@H](O[C@H]3O[C@H](CN)CC[C@H]3N)[C@@H](N)C[C@H]2N)OC[C@]1(C)O.O=S(=O)(O)O`, the MIC in [1] amounted to 1 µg/mL; with Streptococcus agalactiae it was 10 µg/mL; in the assay with Bacillus subtilis, 0.5 µg/mL; in the assay on Staphylococcus aureus [2], 2 µg/mL; in the assay on Staphylococcus aureus [3] it was 5 µg/mL.
Broadly, the IC50 is the concentration that inhibits the measured activity by half. Turning to `CC(=O)c1ccc(NC2=C(Cl)C(=O)c3ccccc3C2=O)cc1`, the IC50 in [4] stood at 0.29 µM.
Consider `C=C[C@@]1(C)C=C(C)[C@@H]2[C@@H]3[C@H](Oc4ccc(cc4)C[C@@H]4C(=O)NC(=O)[C@@H]4C(=O)[C@H]31)[C@@H]1[C@@H](C)C[C@@H](C)C[C@]12C`, for which the IC50 in the assay on NCI-H1975 is 75 µM; in assay [5] it was over 200 µM; in assay [6] it was 14 µM; in assay [7], 8.1 µM; in assay [8], 25 µM. For the same compound, the MIC in assay [1] came to 50 µg/mL; in the assay with Streptococcus agalactiae it was 100 µg/mL; with Bacillus subtilis it was 20 µg/mL; with Staphylococcus aureus [2], 100 µg/mL; in the assay with Staphylococcus aureus [3], 50 µg/mL; with Escherichia coli, 50 µg/mL (≈ 99.7 µM).
On to `CO[C@@]12Cc3ccc(cc3)O[C@H]3[C@@H]4[C@H]5C(=O)[C@](C[C@H](O)OO[C@@]5(C)[C@H]5O[C@@]5(C)[C@H]4[C@]4(C)C[C@H](C)C[C@H](C)[C@@H]34)(C1)C(=O)N2`, for which the IC50 with NCI-H1975 was over 80 µM; in assay [5] it was over 200 µM; in [6] it was over 200 µM; in assay [4] it was over 200 µM; in [7] it was over 200 µM; in assay [8] it was over 200 µM. The MIC is 50 µg/mL in assay [1]; 50 µg/mL with Streptococcus agalactiae; 50 µg/mL in the assay on Bacillus subtilis; 50 µg/mL with Staphylococcus aureus [2]; 50 µg/mL in the assay on Staphylococcus aureus [3]; 50 µg/mL (≈ 86 µM) with Escherichia coli.
`C[C@@H]1C[C@H](C)[C@H]2[C@H]3Oc4ccc(cc4)C[C@]4(O)C/C(=C(/O)[C@H]5[C@H](C)[C@H]6O[C@@]6(C)[C@H]([C@H]35)[C@]2(C)C1)C(=O)N4`: the MIC amounted to 20 µg/mL in assay [1]; 50 µg/mL in the assay with Streptococcus agalactiae; 20 µg/mL in the assay with Bacillus subtilis; 50 µg/mL in the assay with Staphylococcus aureus [2]; 50 µg/mL with Staphylococcus aureus [3]; 20 µg/mL (≈ 40.5 µM) in the assay on Escherichia coli.
For the compound `C=C[C@@]1(C)C=C(C)[C@@H]2[C@@H]3[C@@H](Oc4ccc(cc4)C[C@@]4(O)C/C(=C(/O)[C@H]31)C(=O)N4)[C@@H]1[C@@H](C)C[C@@H](C)C[C@]12C`, the IC50 in the assay on NCI-H1975 was 72 µM; in assay [5], over 200 µM; in assay [6], 92 µM; in assay [4], 100 µM; in assay [7], 100 µM; in assay [8], 89 µM. Further, the MIC in [1] is 20 µg/mL; in the assay on Streptococcus agalactiae, 20 µg/mL; in the assay on Bacillus subtilis it was 10 µg/mL; in the assay on Staphylococcus aureus [2], 20 µg/mL; in the assay on Staphylococcus aureus [3], 20 µg/mL; against Escherichia coli, 20 µg/mL (≈ 39.7 µM).
In the case of `CO[C@@H]1C2Cc3ccc(cc3)O[C@H]3[C@H]4[C@@H](C(C)=C[C@]5(C)CC[C@@]1(C(=O)N2)C(=O)[C@H]45)[C@]1(C)C[C@H](C)C[C@H](C)[C@@H]31`, the MIC (in assay [1]; with Streptococcus agalactiae; in the assay on Bacillus subtilis; in the assay with Staphylococcus aureus [2]; in the assay on Staphylococcus aureus [3]; against Escherichia coli) was over 100 µg/mL each time.
`C[C@@H]1C[C@H](C)[C@H]2[C@H]3Oc4ccc(cc4)C[C@]4(O)C[C@]5(C[C@H](O)OO[C@@]6(C)[C@H]7O[C@@]7(C)[C@H]([C@H]3[C@H]6C5=O)[C@]2(C)C1)C(=O)N4`: the 50% inhibitory concentration (IC50) is over 80 µM in the assay with NCI-H1975; over 200 µM in assay [5]; over 200 µM in [6]; over 200 µM in [4]; over 200 µM in assay [7]; over 200 µM in [8]. Moreover, the MIC in assay [1] worked out at 50 µg/mL; in the assay on Streptococcus agalactiae it was 50 µg/mL; in the assay with Bacillus subtilis, 50 µg/mL; in the assay with Staphylococcus aureus [2], 50 µg/mL; with Staphylococcus aureus [3], 50 µg/mL; against Escherichia coli, 50 µg/mL (≈ 88.1 µM).
Turning to `CO[C@@H]1/C2=C3\O[C@@H](C)[C@@]4(C)C=C(C)[C@@H]5[C@H]([C@H](Oc6ccc(cc6)C[C@]1(O)NC2=O)[C@@H]1[C@@H](C)C[C@@H](C)C[C@]15C)[C@@H]34`, the IC50 in the assay on NCI-H1975 was 55 µM; in assay [5], over 200 µM; in [6] it was 79 µM; in assay [4], 63 µM; in assay [7], 190 µM; in assay [8] it was 39 µM.
Regarding `CC(=O)[C@@H]1[C@@H]2[C@H](Oc3ccc(cc3)C[C@]3(O)C[C@]4(C[C@@H](O)[C@](C)(C=O)[C@@H]2C4=O)C(=O)N3)[C@@H]2[C@@H](C)C[C@@H](C)C[C@]21C`, the IC50 is over 80 µM in the assay on NCI-H1975; over 200 µM in [5]; over 200 µM in [6]; over 200 µM in assay [4]; over 200 µM in assay [7]; over 200 µM in assay [8]. Also, the MIC was 100 µg/mL in [1]; over 100 µg/mL in the assay on Streptococcus agalactiae; 100 µg/mL in the assay on Bacillus subtilis; over 100 µg/mL in the assay with Staphylococcus aureus [2]; over 100 µg/mL with Staphylococcus aureus [3]; 100 µg/mL (≈ 181 µM) in the assay with Escherichia coli.
In the case of `CO[C@@]12Cc3ccc(cc3)O[C@H]3[C@H]([C@H]4C(=O)[C@](C[C@@H](O)[C@]4(C)C=O)(C1)C(=O)N2)[C@@H](C(C)=O)[C@]1(C)C[C@H](C)C[C@H](C)[C@@H]31`, the MIC is 100 µg/mL in assay [1]; over 100 µg/mL in the assay on Streptococcus agalactiae; 100 µg/mL in the assay with Bacillus subtilis; over 100 µg/mL in the assay on Staphylococcus aureus [2]; over 100 µg/mL in the assay on Staphylococcus aureus [3]; 100 µg/mL (≈ 177 µM) with Escherichia coli. Besides, the IC50 in assay [5] is over 200 µM; in [6], 130 µM; in [4], 100 µM; in [7], over 200 µM; in assay [8], 58 µM.
